Tests used:
β2-adrenergic receptor = biological target: T1, β2-adrenergic receptor (Homo sapiens, UniProt P07550); test: Functional cellular cAMP (HTRF) assay, CHO cells expressing β2-ARs; format: cell-based; conditions: relative to procaterol
T1 construct: expressed in transfected cells; host or cells: CHO
Description: The potency and maximal effect of vibegron and mirabegron for β3-adrenergic receptors and the selectivity for each […] receptor were determined. Functional cellular assays for vibegron and mirabegron activity were performed using Chinese hamster ovary (CHO) cells expressing β1- or β2-ARs and human embryonic kidney (HEK) 293 cells expressing β3-ARs. Cells were incubated with vibegron, mirabegron, or the appropriate control (isoproterenol for β1 and β3, procaterol for β2). Responses were quantified using homogeneous time-resolved fluorescence of cyclic adenosine monophosphate. Half-maximal effective concentration (EC50) and maximum response (Emax) values were determined by nonlinear least-squares regression analysis.

[1] = tested on: mice with induced myocardial infarction; test: Post-MI chronic heart failure in mice, echocardiography; format: in vivo
Source text: The purpose of this experiment is to study the effect of vibegron on structural remodeling (e.g., hypertrophy and/or fibrosis) and functional remodeling (e.g, ventricular function) in mice with chronic HF after a myocardial infarction (MI). The specific aims of these studies will be to determine the dose response treatment effects on cardiac remodeling by measuring parameters of cardiac structure and function using non-invasive, invasive, morphological, and histological assessments of mice after MI.
Myocardial infarction in the mouse is a commonly used experimental model for chronic ischemic heart failure. Due to complete ligation of the left anterior descending coronary artery, there is a large left ventricular infarct that produces adverse LV remodeling and significant dysfunction within 2 weeks post-MI. There also is significant fibrosis in this model and it is robust and reproducible with low mortality due to the surgical procedure. This model has been used for over 2 decades (see, e.g., Gao, E. et al., Circulation Research, 2010; 107: 1445-1453) and has been used to test potential novel HF therapeutics (Schumacher, S. et al. Science Translational Medicine, 2015; 7: 277).
Myocardial infarction was induced in 10-12 week C57B/6 wild-type mice and after 2 weeks echo cardiograms were used to assess the MI severity in each mouse. Mice were randomized for treatment based on similarity and severity of the induced infarct. The mice were started with either vibegron or vehicle (1-3 doses) administered by continuous infusion using 2 week minipumps (Azlet Corp.) that were filled with the appropriate dose and implanted subcutaneously on the back of each animal in the region of the scapula. The minipumps were replaced with new minipumps in the same location at the 2 week time point and dosed for 4 weeks in total. Cardiac function was assessed by echocardiography (Echo) at 0, 2, 4, and 6 weeks. Some mice were subjected to terminal catheterization to measure hemodynamic pressures and adrenergic responsiveness.
Sham surgery groups treated with vehicle and highest dose of vibegron were included as controls. One group of post-MI mice treated with vehicle was also included in the study as a control. Two groupings of the 6 conditions were tested to allow for multiple replicates. There were 7 to 8 mice per condition in each group. The 2 groups studied were staggered by 3-4 weeks.
At this point, 6 experimental conditions (A-F below)×2 groups (staggered for reproducibility) were tested. Vibegron was provided in a form dissolved and delivered via an osmotic minipump placed under the skin of the mouse. The vehicle was used for negative control animals. Three (3) doses of vibegron (low, medium and high) were tested.
• A. Sham—vehicle • B. Sham—vibegron (high dose) • C. MI—vehicle • D. MI—vibegron—low dose • E. MI—vibegron—medium dose • F. MI—vibegron—high dose Group 2 (7 or 8 Mice Per Group) Repeated 3-4 Weeks after Group 1 • A. Sham—vehicle • B. Sham—vibegron (high dose) • C. MI—vehicle • D. MI—vibegron—low dose • E. MI—vibegron—medium dose • F. MI—vibegron—high dose
• 1. Day 0 (after 1-2 weeks acclimation)—pre-surgery Echo • 2. Perform LAD Ligation (MI) or Sham procedure • 3. Day 14—Echo and randomly assign groups • 4. Day 14—begin administration of vehicle and drug for 4 weeks • 5. Day 28—Echo (operator blinded to groups)—change pumps for another 2 week dosing • 6. Day 42—Echo (operator blinded to groups) • 7. Day 42—Some were used for hemodynamics and ISO dose response and all animals sacrificed. Some were used for histology and some for RNA/Protein analysis. Blood was also collected at the time of sacrifice to determine serum concentrations.
Surgical Methods: As described in Gao, E. et al., Circulation Research, 2010; 107: 1445-1453 and Schumacher, S. et al. Science Translational Medicine, 2015; 7: 277, mice were anesthetized and complete ligation of the LAD was performed through a partial thoracotomy.

[2] = MI mice, high dose (10 mg/kg), Baseline (pre-surgery)
[3] = MI mice, high dose (10 mg/kg), Week 2 (before start of dosing)
[4] = MI mice, high dose (10 mg/kg), Week 4 (2 weeks after dosing)
[5] = MI mice, high dose (10 mg/kg), Week 6 (4 weeks of treatment)
[6] = MI mice, low dose (1 mg/kg), Baseline (pre-surgery)
[7] = MI mice, low dose (1 mg/kg), Week 2 (before start of dosing)
[8] = MI mice, low dose (1 mg/kg), Week 4 (2 weeks after dosing)
[9] = MI mice, low dose (1 mg/kg), Week 6 (4 weeks of treatment)
[10] = MI mice, medium dose (3 mg/kg), Baseline (pre-surgery)
[11] = MI mice, medium dose (3 mg/kg), Week 2 (before start of dosing)
[12] = MI mice, medium dose (3 mg/kg), Week 4 (2 weeks after dosing)
[13] = MI mice, medium dose (3 mg/kg), Week 6 (4 weeks of treatment)
[14] = sham mice, high dose (10 mg/kg), Baseline (pre-surgery)
[15] = sham mice, high dose (10 mg/kg), Week 2 (before start of dosing)
[16] = sham mice, high dose (10 mg/kg), Week 4 (2 weeks after dosing)
[17] = sham mice, high dose (10 mg/kg), Week 6 (4 weeks of treatment)

T1 sequence (P07550 whole entry): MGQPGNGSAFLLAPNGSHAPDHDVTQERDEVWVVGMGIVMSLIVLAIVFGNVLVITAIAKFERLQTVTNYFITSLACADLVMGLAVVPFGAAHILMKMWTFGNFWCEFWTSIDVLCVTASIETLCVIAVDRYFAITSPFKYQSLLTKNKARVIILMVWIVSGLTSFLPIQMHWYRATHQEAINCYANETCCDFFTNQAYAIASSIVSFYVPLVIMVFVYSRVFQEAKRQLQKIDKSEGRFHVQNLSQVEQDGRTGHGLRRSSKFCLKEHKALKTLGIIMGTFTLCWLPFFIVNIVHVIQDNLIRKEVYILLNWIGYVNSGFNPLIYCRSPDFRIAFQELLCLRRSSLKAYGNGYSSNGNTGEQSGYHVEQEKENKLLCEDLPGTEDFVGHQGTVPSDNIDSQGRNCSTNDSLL

**Q.** For O=C(Nc1ccc(C[C@@H]2CC[C@H]([C@H](O)c3ccccc3)N2)cc1)[C@@H]1CCc2nccc(=O)n21 [Vibegron, (6S)—N-[4-[[(2S,5R)-5-[(R)-hydroxy(phenyl)methyl]pyrrolidin-2-yl]methyl]phenyl]-4-oxo-7,8-dihydro-6H-pyrrolo[1,2-a]pyrimidine-6-carboxamide], which “β2-adrenergic activity (% Activity)” value (β2-adrenergic receptor) is on record?
**A.** 2%

**Q.** What about the “Average % Ejection Fraction” value [1, 2] of the same compound?
**A.** 62.06%

**Q.** And the “Average % Fractional Shortening” value [1, 2]?
**A.** 32.99%

**Q.** And the “Cardiac Output” value [1, 2]?
**A.** 20.56 mL/min

**Q.** And the “Stroke Volume” value [1, 2]?
**A.** 43.30 µL

**Q.** And the “Average % Ejection Fraction” value [1, 3]?
**A.** 38.39%

**Q.** And the “Average % Fractional Shortening” value [1, 3]?
**A.** 18.91%

**Q.** What about the “Cardiac Output” value [1, 3] of the same compound?
**A.** 18.93 mL/min

**Q.** What about the “Stroke Volume” value [1, 3] of the same compound?
**A.** 40.79 µL

**Q.** What about the “Average % Ejection Fraction” value [1, 4] of the same compound?
**A.** 42.59%

**Q.** And the “Average % Fractional Shortening” value [1, 4]?
**A.** 21.61%

**Q.** And the “Cardiac Output” value [1, 4]?
**A.** 23.29 mL/min

**Q.** And the “Cardiac Output % Improvement Relative to Vehicle” value [1, 4]?
**A.** 37.40%

**Q.** What about the “Stroke Volume” value [1, 4] of the same compound?
**A.** 46.83 µL

**Q.** And the “Stroke Volume % Improvement Relative to Vehicle” value [1, 4]?
**A.** 40.84%

**Q.** And the “Average % Ejection Fraction” value [1, 5]?
**A.** 42.68%

**Q.** What about the “Average % Fractional Shortening” value [1, 5] of the same compound?
**A.** 21.76%

**Q.** And the “Cardiac Output” value [1, 5]?
**A.** 25.09 mL/min

**Q.** What about the “Cardiac Output % Improvement Relative to Vehicle” value [1, 5] of the same compound?
**A.** 61.35%

**Q.** What about the “Stroke Volume” value [1, 5] of the same compound?
**A.** 47.22 µL

**Q.** And the “Stroke Volume % Improvement Relative to Vehicle” value [1, 5]?
**A.** 57.87%

**Q.** And the “Average % Ejection Fraction” value [1, 6]?
**A.** 59.50%

**Q.** What about the “Average % Fractional Shortening” value [1, 6] of the same compound?
**A.** 31.22%

**Q.** And the “Cardiac Output” value [1, 6]?
**A.** 20.00 mL/min

**Q.** What about the “Stroke Volume” value [1, 6] of the same compound?
**A.** 42.74 µL

**Q.** What about the “Average % Ejection Fraction” value [1, 7] of the same compound?
**A.** 37.52%

**Q.** What about the “Average % Fractional Shortening” value [1, 7] of the same compound?
**A.** 18.44%

**Q.** And the “Cardiac Output” value [1, 7]?
**A.** 18.06 mL/min

**Q.** And the “Stroke Volume” value [1, 7]?
**A.** 39.30 µL

**Q.** What about the “Average % Ejection Fraction” value [1, 8] of the same compound?
**A.** 29.77%

**Q.** And the “Average % Fractional Shortening” value [1, 8]?
**A.** 14.29%

**Q.** What about the “Cardiac Output” value [1, 8] of the same compound?
**A.** 15.45 mL/min

**Q.** And the “Stroke Volume” value [1, 8]?
**A.** 32.76 µL

**Q.** What about the “Average % Ejection Fraction” value [1, 9] of the same compound?
**A.** 31.64%

**Q.** What about the “Average % Fractional Shortening” value [1, 9] of the same compound?
**A.** 15.21%

**Q.** And the “Cardiac Output” value [1, 9]?
**A.** 19.19 mL/min

**Q.** What about the “Cardiac Output % Improvement Relative to Vehicle” value [1, 9] of the same compound?
**A.** 23.40%

**Q.** What about the “Stroke Volume” value [1, 9] of the same compound?
**A.** 37.54 µL

**Q.** What about the “Stroke Volume % Improvement Relative to Vehicle” value [1, 9] of the same compound?
**A.** 25.51%

**Q.** And the “Average % Ejection Fraction” value [1, 10]?
**A.** 58.11%

**Q.** What about the “Average % Fractional Shortening” value [1, 10] of the same compound?
**A.** 30.07%

**Q.** What about the “Cardiac Output” value [1, 10] of the same compound?
**A.** 21.05 mL/min

**Q.** And the “Stroke Volume” value [1, 10]?
**A.** 44.72 µL

**Q.** And the “Average % Ejection Fraction” value [1, 11]?
**A.** 37.18%

**Q.** What about the “Average % Fractional Shortening” value [1, 11] of the same compound?
**A.** 18.14%

**Q.** And the “Cardiac Output” value [1, 11]?
**A.** 18.94 mL/min

**Q.** And the “Stroke Volume” value [1, 11]?
**A.** 40.37 µL

**Q.** And the “Average % Ejection Fraction” value [1, 12]?
**A.** 35.95%

**Q.** What about the “Average % Fractional Shortening” value [1, 12] of the same compound?
**A.** 17.57%

**Q.** And the “Cardiac Output” value [1, 12]?
**A.** 19.51 mL/min

**Q.** What about the “Cardiac Output % Improvement Relative to Vehicle” value [1, 12] of the same compound?
**A.** 15.10%

**Q.** What about the “Stroke Volume” value [1, 12] of the same compound?
**A.** 39.00 µL

**Q.** And the “Stroke Volume % Improvement Relative to Vehicle” value [1, 12]?
**A.** 17.29%

**Q.** What about the “Average % Ejection Fraction” value [1, 13] of the same compound?
**A.** 35.55%

**Q.** What about the “Average % Fractional Shortening” value [1, 13] of the same compound?
**A.** 17.36%

**Q.** And the “Cardiac Output” value [1, 13]?
**A.** 20.90 mL/min

**Q.** What about the “Cardiac Output % Improvement Relative to Vehicle” value [1, 13] of the same compound?
**A.** 34.41%

**Q.** What about the “Stroke Volume” value [1, 13] of the same compound?
**A.** 41.69 µL

**Q.** And the “Stroke Volume % Improvement Relative to Vehicle” value [1, 13]?
**A.** 39.38%

**Q.** What about the Onset of action ([1]; after initiation of treatment, as shown in the examples) of the same compound?
**A.** ≤ 2 weeks

**Q.** And the “Adverse effects in healthy hearts (echocardiographic function versus baseline)” value ([1]; sham mice, high dose)?
**A.** no adverse effects

**Q.** And the “Average % Ejection Fraction” value [1, 14]?
**A.** 59.04%

**Q.** And the “Average % Fractional Shortening” value [1, 14]?
**A.** 30.87%

**Q.** What about the “Cardiac Output” value [1, 14] of the same compound?
**A.** 22.09 mL/min

**Q.** And the “Stroke Volume” value [1, 14]?
**A.** 42.25 µL

**Q.** What about the “Average % Ejection Fraction” value [1, 15] of the same compound?
**A.** 62.36%

**Q.** And the “Average % Fractional Shortening” value [1, 15]?
**A.** 33.26%

**Q.** And the “Cardiac Output” value [1, 15]?
**A.** 23.72 mL/min

**Q.** What about the “Stroke Volume” value [1, 15] of the same compound?
**A.** 45.57 µL

**Q.** What about the “Average % Ejection Fraction” value [1, 16] of the same compound?
**A.** 61.08%

**Q.** What about the “Average % Fractional Shortening” value [1, 16] of the same compound?
**A.** 32.32%

**Q.** What about the “Cardiac Output” value [1, 16] of the same compound?
**A.** 22.53 mL/min

**Q.** And the “Stroke Volume” value [1, 16]?
**A.** 44.44 µL

**Q.** What about the “Average % Ejection Fraction” value [1, 17] of the same compound?
**A.** 61.18%

**Q.** What about the “Average % Fractional Shortening” value [1, 17] of the same compound?
**A.** 32.45%

**Q.** And the “Cardiac Output” value [1, 17]?
**A.** 23.63 mL/min

**Q.** And the “Stroke Volume” value [1, 17]?
**A.** 45.97 µL

Reference: patent US20260224577A1, “METHODS OF TREATING HEART FAILURE WITH VIBEGRON” (SUMITOMO PHARMA CO., LTD., priority 2021, published 2026)
